Results on six molecules are retold here after ChEMBL document CHEMBL1201862, “PubChem BioAssay data set” (2004).

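Dose response: 5 concentrations. Exposure: 48 h. Format: 96-well plates. Endpoint: linear interpolation; highest concentration if not reached. GI50 is the concentration that inhibits growth by half.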 Activity calls are given as the source filed them. No stated cut-off is given here; in the data, active = GI50 up to about 1.1 µM and inactive = higher.

Some test systems named below: OVCAR-8; OVCAR-5; SF-539; NCI-H460; NCI/ADR-RES; T47D; NCI-H23; SK-MEL-5; RXF 393; SR; K562; Hs-578T; HT-29; KM12; SK-MEL-28; A498; COLO 205; UO-31; MDA-MB-231; MDA-N.
Test in all cases: NCI anticancer screen, dose series, 48 h

As to `O[C@@]1(C#Cc2ccc3c(c2)OCO3)CCC[C@H]1NCc1ccccc1`, the GI50 was 22.8 µM (inactive) with OVCAR-8; 34.8 µM (inactive) in the assay on OVCAR-5; 16 µM (inactive) in the assay with SF-539; 24.7 µM (inactive) with NCI-H460; 16.7 µM (inactive) in the assay with NCI/ADR-RES; 18.7 µM (inactive) in the assay on T47D. For the same molecule, the GI50 in the assay on NCI-H23 was 29.6 µM (inactive); in the assay on SK-MEL-5 it was 19.4 µM (inactive); in the assay with RXF 393, 24.3 µM (inactive); in the assay on SR, 23.2 µM (inactive); in the assay on K562 it was 18.7 µM (inactive); in the assay on Hs-578T, 21.2 µM (inactive). For the same molecule, the GI50 is 22.9 µM (inactive) in the assay on HT-29; 20 µM (inactive) in the assay on KM12; 17.6 µM (inactive) with SK-MEL-28; 28.6 µM (inactive) with A498; 18.3 µM (inactive) in the assay on COLO 205; 18.6 µM (inactive) in the assay on UO-31. For the same molecule, the GI50 with MDA-MB-231 is 24.9 µM (inactive); with MDA-N it was 16.9 µM (inactive).

On to `CC(C)Oc1c(N(Cc2ccccc2)c2ccccc2C2SCCCS2)c(=O)c1=O`, for which the GI50 in the assay on OVCAR-8 is 3.61 µM (inactive); in the assay on OVCAR-5, 5.97 µM (inactive); in the assay with SF-539, 2.76 µM (inactive); with NCI-H460, 3.69 µM (inactive); in the assay on NCI/ADR-RES it was 1.75 µM (inactive); in the assay on T47D it was 5.14 µM (inactive). Further, the GI50 in the assay with NCI-H23 was 3.97 µM (inactive); in the assay on SK-MEL-5 it was 4.32 µM (inactive); in the assay with RXF 393 it was 4.88 µM (inactive); in the assay on SR it was 2.79 µM (inactive); in the assay on K562, 4.05 µM (inactive); with Hs-578T, 3.44 µM (inactive). Besides, the GI50 is 2.52 µM (inactive) in the assay with HT-29; 3.21 µM (inactive) in the assay on KM12; 11.2 µM (inactive) with SK-MEL-28; 6.9 µM (inactive) in the assay with A498; 3.07 µM (inactive) with COLO 205; 6.67 µM (inactive) with UO-31. For the same molecule, the GI50 in the assay with MDA-MB-231 was 5.08 µM (inactive); with MDA-N, 3.1 µM (inactive).

For `C[C@]12CC[C@H]3[C@@H](CC=C4C[C@@H](N5CCCC5)CC[C@@]43C)[C@@H]1C[C@H](N1CCOCC1)[C@@H]2O`, the GI50 in the assay on OVCAR-8, in the assay on OVCAR-5, in the assay with SF-539, in the assay with NCI-H460, in the assay on NCI/ADR-RES and with T47D was > 100 µM (inactive) in each case. For the same molecule, the GI50 in the assay on NCI-H23 is > 100 µM (inactive); with SK-MEL-5 it was > 100 µM (inactive); in the assay with RXF 393, > 100 µM (inactive); with SR, 23.4 µM (inactive); in the assay with K562 it was 22.5 µM (inactive); in the assay with Hs-578T it was > 100 µM (inactive). Besides, the GI50 in the assay with HT-29 is 44.5 µM (inactive); with KM12 it was > 100 µM (inactive); with SK-MEL-28, > 100 µM (inactive); in the assay on A498, > 100 µM (inactive); in the assay on COLO 205, > 100 µM (inactive); in the assay on UO-31, > 100 µM (inactive). The GI50 in the assay on MDA-MB-231 and with MDA-N was > 100 µM (inactive) each time.

On to `CCCCCC/C=C\CCCCCCCCCC1=C(CN2CCN(C)CC2)C(=O)C=C(OC)C1=O`, for which the GI50 in the assay on OVCAR-8 was 4.53 µM (inactive); in the assay on OVCAR-5, 15.2 µM (inactive); in the assay with SF-539 it was 15.4 µM (inactive); in the assay on NCI-H460 it was 5.73 µM (inactive); in the assay on NCI/ADR-RES, 3.58 µM (inactive); in the assay with T47D, 2.28 µM (inactive). The GI50 in the assay on NCI-H23 was 4.57 µM (inactive); in the assay on SK-MEL-5, 6.75 µM (inactive); in the assay with RXF 393 it was 2.29 µM (inactive); in the assay on SR it was 0.0578 µM (active); with K562, 2.24 µM (inactive); in the assay on Hs-578T, 6.03 µM (inactive). The GI50 with HT-29 is 7.28 µM (inactive); with KM12 it was 6.47 µM (inactive); in the assay on SK-MEL-28 it was 13.6 µM (inactive); with A498, 17.5 µM (inactive); with COLO 205, 1.71 µM (inactive); in the assay with UO-31 it was 3.03 µM (inactive). Further, the GI50 in the assay on MDA-MB-231 was 9.53 µM (inactive); in the assay on MDA-N it was 8.05 µM (inactive).

In the case of `COc1cccc([C@H]2CC(=O)c3cc4c(cc3N2)OCO4)c1`, the GI50 in the assay with OVCAR-8 was 0.401 µM (active); in the assay on OVCAR-5 it was 0.441 µM (active); in the assay with SF-539, 0.274 µM (active); in the assay on NCI-H460 it was 0.411 µM (active); in the assay on NCI/ADR-RES, 0.296 µM (active); with T47D, > 100 µM (inactive). Also, the GI50 in the assay with NCI-H23 was 0.451 µM (active); in the assay on SK-MEL-5, 0.216 µM (active); in the assay on RXF 393 it was 0.171 µM (active); in the assay on SR, 0.318 µM (active); with K562, 1.3 µM (inactive); in the assay on Hs-578T, 0.216 µM (active). In addition, the GI50 with HT-29 is 0.194 µM (active); with KM12, 0.317 µM (active); with SK-MEL-28 it was 4.82 µM (inactive); in the assay on A498 it was 0.75 µM (active); in the assay with COLO 205 it was 0.296 µM (active); with UO-31, 0.485 µM (active). The values for the GI50 with MDA-MB-231 and in the assay with MDA-N were 0.424 µM (active) and 0.0789 µM (active), respectively.

Turning to `CCOC(=O)c1nc2cc(C(F)(F)F)ccc2nc1Nc1ccc(OC)c(OC)c1`, the GI50 with OVCAR-8 was > 100 µM (inactive); with OVCAR-5, > 100 µM (inactive); in the assay on SF-539, > 100 µM (inactive); with NCI-H460 it was > 100 µM (inactive); in the assay with NCI/ADR-RES it was > 100 µM (inactive); in the assay with T47D, 71.3 µM (inactive). In addition, the GI50 was > 100 µM (inactive) in the assay on NCI-H23; > 100 µM (inactive) in the assay with SK-MEL-5; > 100 µM (inactive) in the assay with RXF 393; > 100 µM (inactive) in the assay with SR; > 100 µM (inactive) in the assay with K562; 41.7 µM (inactive) in the assay on Hs-578T. For the same molecule, the GI50 in the assay with HT-29, with KM12, in the assay with SK-MEL-28, in the assay on A498, in the assay with COLO 205 and with UO-31 was > 100 µM (inactive) in each case. The GI50 with MDA-MB-231 and in the assay with MDA-N was > 100 µM (inactive) throughout.
